From PMC5809559, “DYRK1A inhibition and cognitive rescue in a Down syndrome mouse model are induced by new fluoro-DANDY derivatives” (Scientific Reports, 2018)
Where two headings read alike, the source gives them in different places.

Experiments:
KB cells = test: KB cell proliferation / cytotoxicity (CellTiter-Blue); type: cell-based; settings: Homo sapiens, KB, 72 h, 72 h
Method: Cancer cell lines were obtained from the American Type Culture Collection (Rockville, MD, USA) and were cultured according to the supplier’s instructions. Briefly, human KB epidermal carcinoma cells were grown in Dulbecco minimal essential medium (DMEM) containing 4.5 g/L glucose supplemented with 10% fetal calf serum (FCS) and 1% glutamine, 100 UI penicillin, 100 µg/mL streptomycin and 1.5 µg/mL fungizone and maintained at 37 °C in a humidified atmosphere containing 5% CO2. Cell viability was assessed using Promega CellTiter-Blue TM reagent according to the manufacturer’s instructions. Cells were seeded in 96-well plates (5 × 10^3 cells/well) containing […]. After 24 h of culture, the cells were supplemented with […] of the studied compound dissolved in DMSO (less than 0.1% in each preparation). After 72 h of incubation, […] of resazurin was added for 2 h before recording fluorescence (λex = 560 nm, λem = 590 nm) using a Victor microtiter plate fluorimeter (Perkin-Elmer, USA).

[1] = Plasma and brain homogenate concentrations after Morris Water Maze (UHPLC-MS/MS); type: in vivo, mice; settings: for average plasma concentration: 20 mg/kg i.p. daily, after MWM; for Kp: mouse, brain, intraperitoneal, 20 mg/kg, read-out: partition coefficient at steady state (Kp = brain concentration/plasma concentration)
Method: […]. To that end, all animals were sacrificed directly after the Morris Water Maze (MWM) and plasma and brain homogenates (one hemisphere) were extracted and analyzed. […]. […] […]. However, Kp values might be underestimated due to high plasma levels that could saturate efflux transport to the brain.
All plasma and brain homogenate extracts were analyzed by an ultra-high performance liquid chromatography (UHPLC) system coupled to a triple-quadrupole mass spectrometer (Dionex Ultimate 3000 RSLC system coupled to a TSQ Vantage EMR, Thermo Scientific, Les Ulis, France). UHPLC separation was performed using a C18 column (HSS T3, 2.1 mm × 150 mm, 1.7 μm, Waters, Guyancourt, France) equipped with a guard column (HSS T3, 2.1 mm × 5 mm, 1.7 μm, Waters, Guyancourt, France) and maintained at 40 °C. The mobile phases were water, 0.1% formic acid (A) and acetonitrile (B). […]. Injection volume was 4 µL and the autosampler was maintained at 6 °C. Ionization was performed with a heated electrospray ionization source in positive mode. The source parameters were set as follows: spray voltage 3350 V, vaporizer temperature 250 °C, sheath gas (N2) pressure 55 psi, auxiliary gas pressure (N2) 25 psi, capillary temperature 350 °C. Analysis was performed under the Selected Reaction Monitoring (SRM) mode using several transitions for each compound at optimized collision energies (see Table SI2 and Figure SI1). […]. Data acquisition was performed using ThermoScientific Xcalibur 2.1 software system. All samples were analyzed in triplicate.
Two compounds, V[34] (Fig. 9) and 5d, were tested as internal standard (IS). […] Calibration curve points and quality control (QC) points were realized in spiked plasma or brain homogenate samples (Figure SI2). […]. Samples with concentrations above the upper calibration point were diluted to be in the calibration range. Limit of quantification (LOQ) was determined as the lowest point of the calibration curve at 1.6 pg/μL. QC samples were prepared at 14.5 and 58 pg/μL to validate the between-run precision (n = 3, RSD of 13% and 5%, respectively), between-run trueness was 95 and 88% respectively. […]. Limit of quantification (LOQ) was determined as the lowest point of the calibration curve at 1.6 pg/mg. QC samples were prepared at 3.2 and 22.4 pg/mg to validate the between-run precision (n = 3, RSD of 8% and 2% respectively), between-run trueness was 129 and 93% respectively.
Immediately following last day of training in the MWM, mice were sacrificed by decapitation for maximal blood collection and the brain was immediately extracted from the skull, the cerebellum removed and the hemispheres separated and frozen at −80 °C. Plasma was obtained as described above. […]. Subsequently, the IS was added to 400 µL of homogenate which was then centrifuged (12 min, 14000 × g, 4 °C). The supernatant was evaporated and transferred into 40 µL acetonitrile/methanol/water (2/2/1). After centrifugation (12 min, 14000 × g, 4 °C), 4 µL of supernatant was used for UHPLC-MS/MS analysis.

Ts65Dn mice = test: Morris water maze spatial learning in Ts65Dn and WT mice; type: in vivo
Description: Ts65Dn mice, the best-characterized and most widely used mouse model of DS, are trisomic for a segment of chromosome 16 extending between genes Mrp139 and Znf295 and containing approximately 92 orthologues of human chromosome 21 genes[42] including the Dyrk1a gene. […] Mice were trained for a total of 5 days to learn a fixed spatial goal location in the maze. […] In this paradigm, learning occurred when mice succeeded in decreasing their traveled distances after repeated training trials.
Male Ts65Dn (n = 8) mice and euploid wild-type (WT) littermates (n = 10) were purchased from the Jackson Laboratory (Bar Harbor, Maine, USA). As the recessive retinal degeneration 1 mutation Pde6brd1 in the original Ts65Dn mice causes blindness in homozygotes, we used an alternative strain (SN 5252) that is wild-type for Pde6b, thereby preventing retinal degeneration. Housing conditions comprised a standard cage (air-controlled system) with ad libitum food and water and a 12 h light/dark cycle. Mice received at least one week of habituation to the animal facility, followed by three days of handling (three minutes per mouse per day). […] Treatment was continued during the MWM protocol (mice being injected 30 min before each daily session).
Vehicle consisted of an identical composition without compound 5a.
A white pool with a diameter of 150 cm was filled with water made opaque with non-toxic white paint (Acusol OP301, Rohm and Haas Company, Landskrone, Sweden) and kept at a constant temperature (20–21.5 °C). A 9-cm diameter platform was placed in the south-east (SE) quadrant of the pool, 1 cm under the water surface. The light intensity in the experimental room was kept constant at 70 Lux. Mice were habituated to the room for at least 30 min before starting each daily session. The acquisition phase comprised 5 days of training, four trials per day with an inter-trial interval of at least 20 min to minimize motor fatigue. The order of release positions in the pool was pseudo-randomly at the four cardinal points and changed every day to maximize spatial allocentric training and formation of a “cognitive map”. Each trial ended as soon as the mouse found the platform or after a maximum of 90 s, after which the animal was gently manually guided to the platform. Mice were left on the platform for 20 s before they were gently dried with a towel and individually placed in a cage with paper towels for further drying. The animals returned to their homecage after 5 min.
ANY-maze Video Tracking System (Stoelting, USA) was used to record all trials. Calculated measures included 1) thigmotaxis (percent distance traveled in the 10 cm wide peripheral annulus of the pool) indicative of unsuccessful spatial strategy to locate the platform and 2) the Corrected Integrated Pathway Length (CIPL) an unbiased measure of distance-to-platform travelled taking into account the animal’s speed and the initial distance from the goal for each starting position.

Oc1ccc(-c2cnc3[nH]cc(-c4ccc(F)cc4)c3c2)cc1O [Compound 5a, 3-(4-fluorophenyl)-5-(3,4-dihydroxyphenyl)-1H-pyrrolo[2,3-b]pyridine]
inhibition at 10 µM (KB cells; 10^−5 M, read-out: % Growth inhibition 10^−5 M): < 50% | inhibition at 1 µM (KB cells; 10^−6 M, read-out: % Growth inhibition 10^−6 M): 0% | average plasma concentration ([1]; Ts65Dn mice, n = 9): 0.84 ± 0.54 µM | mean brain concentration ([1]; Ts65Dn mice, n = 5, assuming vascular space 15 µL/g tissue): 6.67 ± 4.64 µM | average plasma concentration ([1]; WT mice, n = 10): 0.50 ± 0.28 µM | mean brain concentration ([1]; WT mice, n = 4, assuming vascular space 15 µL/g tissue): 6.61 ± 5.35 µM | Kp ([1]; Ts65Dn mice): 6.43 ± 3.38 | Kp ([1]; WT mice): 10.8 ± 9.55 | change of thigmotaxis between vehicle and 5a conditions (Ts65Dn mice; Ts65Dn mice, 20 mg/kg i.p.): −12.9% | spatial learning performance (CIPL) in Morris water maze (Ts65Dn mice; Ts65Dn mice, 20 mg/kg i.p. daily, vs vehicle, p < 0.05): significant improvement of performance | swim speed in Morris water maze (Ts65Dn mice; Ts65Dn mice, 20 mg/kg i.p., comparison with 5a-treated WT mice p > 0.99): restored normal swim speed | change of thigmotaxis between vehicle and 5a conditions (Ts65Dn mice; WT mice, 20 mg/kg i.p.): −6.5% | effect on Morris water maze performance (Ts65Dn mice; wild type mice, 20 mg/kg i.p. daily, vs vehicle): no observable effect
